# According to patent publication US9163049B2, “Medicament comprising a reducing alkyl-sugar monomer for the treatment of inflammatory disorders” (PIERRE FABRE DERMO-COSMETIQUE, priority 2003, dated 2015):
# How the values were obtained:
# [1] = system: PGE2 released by the NHK stimulated by PMA; experiment: Assay of the PGE2 released by the NHK stimulated by PMA; assay type: cell-based, human; details: for Percentage of inhibition of the release of PGE2: NHK + PMA 1 ng/ml, 24 hours
# Description: Assay of the PGE2 released by the NHK stimulated by PMA.
# Alkyl-rhamnosides were evaluated as an inhibitor of the release of PGE2 in cellular supernatants. These products were placed in the presence of the NHK at the same time as the PMA at 1 ng/ml. Each condition tested was evaluated for stimulation on 4 wells of NHK.
# The results summarized in Table 5 below represent the mean PGE2 concentration values (pg/ml), after 24 hours of treatment, given in each of the cellular supernatants, stimulated or not, and reported in a quantity of cells expressed in μg.
# keratinocytes = experiment: Toxicity test: viability of keratinocytes; assay type: cell-based; details: for % viability: compared to control 100%
# Text: (§1) MTT [3-(4,5-[…])-2,5-diphenyl tetrazolium bromide] Reduction Technique (Sold by Sigma).
# (§2) This technique corresponds to a colorimetric test allowing quantification of living, metabolically active cells in a non-radioactive manner. MTT is a cationic molecule which is bound to the membranes of mitochondria in a potential-dependant fashion. On the level of the mitochondria, MTT will be reduced to formazan blue by mitochondrial dehydrogenase. The living cells are thus colored blue, in contrast with the dead cells which remain transparent. The measure of viability is then carried out by measurement of the optical density using an automatic reader.
# XTT Tetrazolium Salt Reduction Technique.
# This is a technique allowing quantification of cellular proliferation and of the number of living (metabolically active) cells, without the incorporation of radioactive isotopes. XTT, yellow in color, is a cationic molecule which is bound to the membranes of mitochondria in a potential-dependant fashion, as does MTT.
# On the level of the mitochondria, XTT will be reduced to formazan (orange) by mitochondrial tetrazolium reductase. […] Indeed, the reduction product is soluble within the cell. The method is thus faster. Living cells, in the absence and presence of a treatment become colored, in contrast with dead cells which remain colorless. The level of formazan product is detected with the spectrophotometer at a wavelength of 450 nm and is directly proportional to the number of metabolically active cells.
# Keratinocytes were isolated and placed in culture from human skin biopsies arising from anonymous donors following a plastic surgery procedure. Measurements of optical density (absorbance) of the 4 wells treated with the same product concentration were averaged. This average was compared with the average of the measurements obtained for the 4 control wells (Student's t-test comparison of means significant difference at 95% if p<0.05 and 99% if p<0.01).
# The viabilities of the treated cells are expressed as a percentage compared to the control (untreated cells) of 100% (OD treated/OD control×100).
# HBrMEC = experiment: Adhesion of lymphocytes on non-activated endothelial cells HBrMEC; assay type: cell-based
# Description: (§3) Adhesion is carried out in vitro under static conditions. The endothelial cells were cultured in wells in order to obtain a monolayer. The cells were pretreated for 5 hours in the presence or absence of alkyl-rhamnosides. As dodecyl-rhamnoside required a content of 0.1% by volume to be soluble in the culture media, a control containing 0.1% glycerol was also analyzed.
# (§4) The suspension of labeled lymphocytes was at a concentration making it possible to obtain a ratio of 5 lymphocytes per endothelial cell. Adhesion was carried out for 30 minutes at ambient temperature. The label binds irreversibly to the lipids of the plasma membrane of the cells without affecting the biological properties of the membrane or cellular viability.
# (§5) The adhesion of the lymphocytes on the endothelial cells was quantified by flow cytometry.
# [2] = system: HSkMEC activated with TNF-α; experiment: Adhesion between lymphocytes and TNF-α activated endothelial cells (HSkMEC); assay type: cell-based; details: for Control/TNF ratio / adhesion between lymphocytes and endothelial cells, TNF: HSkMEC; for adhesion between lymphocytes and endothelial cells, TNF: control in medium = 1.000
# Description: (§6) The influence of alkyl-rhamnosides on adhesion between lymphocytes and […] endothelial cells, in particular the line of endothelial cells arising from the skin (HSkMEC), was evaluated. These cells were placed in the presence of a strong activator, TNF-α.
# as §3, §4, §5
# The results of adhesion between lymphocytes and activated endothelial cells, summarized in Table 5 below, arise from groups of three adhesion tests.
# [3] = system: proliferation of lymphocytes in auricular lymphatic ganglia; details: in vivo
# Description: (§7) This test determines the sensitizing capacity of the test substance by measuring the proliferation of lymphocytes in auricular lymphatic ganglia. The proliferation of lymphocytes will be measured by determining the incorporation of tritiated methyl thymidine.
# HMLNEC = experiment: Adhesion of lymphocytes on non-activated endothelial cells HMLNEC; assay type: cell-based
# Description: as §3, §4, §5
# HSkMEC = experiment: Adhesion of lymphocytes on non-activated endothelial cells HSkMEC; assay type: cell-based; details: for adhesion between lymphocytes and endothelial cells, Medium: HSkMEC, Medium (no TNF), control = 1.000
# Description: as §6, §3, §4, §5
# HPLNEC.B3 = experiment: Adhesion of lymphocytes on non-activated endothelial cells HPLNEC.B3; assay type: cell-based
# Description: as §3, §4, §5
# [4] = system: proliferation of lymphocytes in auricular lymphatic ganglia; experiment: Sensitizing capacity by the LLNA method (local lymph node assay)
# Description: as §7
# HAPEC = experiment: Adhesion of lymphocytes on non-activated endothelial cells HAPEC; assay type: cell-based
# Description: as §3, §4, §5
# [5] = system: endothelial cells (appendix, brain microvascular, mesenteric lymphatic ganglia, peripheral lymphatic ganglia, skin microvascular); experiment: Cytotoxicity test (MTT) on endothelial cell lines; assay type: cell-based
# Text: as §1, §2
# Endothelial cells were placed in culture, immortalized and stabilized in their phenotype. The cell lines studied were appendix endothelial cells, brain microvascular endothelial cells, mesenteric lymphatic ganglia endothelial cells, peripheral lymphatic ganglia endothelial cells and skin microvascular endothelial cells.
# The cytotoxicity test was carried out by means of a biochemical test on the transformation of a tetrazolium salt, MTT. […] Viability is indeed always greater than 85%, and this is true for all of the cells lines studied.
# reconstituted epidermis = experiment: Cutaneous irritant potential on reconstituted epidermis; assay type: cell-based; details: Rh-C5 concentration 30%, Triton 4%
# Text: The evaluation of cutaneous irritant potential on reconstituted epidermis is an alternative to animal experimentation. The principle is based on the evaluation of the irritant potential of the product tested by: • the study of cytotoxicity by quantification of the release of lactate dehydrogenase (LDH) and by reduction of MTT to […], • the study of inflammation markers by quantification of the release of interleukins and IL8.
molecule,measurement,setting,value
"CCCCCCCCCCCOC1O[C@@H](C)[C@H](O)[C@@H](O)[C@H]1O (stereo partly shown) [Rh-C11, undecyl-rhamnoside]",Percentage of inhibition of the release of PGE2,[1]; 0.01 mg/ml,28%
same,Percentage of inhibition of the release of PGE2,[1]; 0.02 mg/ml,28%
same,activity (inhibition of PGE2 release),[1]; in the range of 20 μg/ml,activity comparable to pentyl-rhamnoside
same,% viability,keratinocytes; 10 μg/ml,81%
same,% viability,keratinocytes; 100 μg/ml,17%
same,% viability,keratinocytes; 250 μg/ml,11%
same,% viability,keratinocytes; 500 μg/ml,30%
"CCCCCOC1O[C@@H](C)[C@H](O)[C@@H](O)[C@H]1O (stereo partly shown) [Rh-C5, pentyl-rhamnoside]",effect on adhesion of lymphocytes,HBrMEC; 1.1 mM,no effect or a very slight effect
same,Control/TNF ratio,[2],1.6
same,"adhesion between lymphocytes and endothelial cells, TNF",[2],3.100
same,Percentage of inhibition of the release of PGE2,[1]; 0.02 mg/ml,29%
same,Percentage of inhibition of the release of PGE2,[1]; 0.05 mg/ml,61%
same,Percentage of inhibition of the release of PGE2,[1]; 0.1 mg/ml,64%
same,Percentage of inhibition of the release of PGE2,[1]; 1 mg/ml,89%
same,Conclusion (sensitizing capacity),[3],Not sensitizing
same,sensitizing capacity,[3],not sensitizing
same,increase in adhesion of lymphocytes compared to rhamnose,HMLNEC; 1.1 mM,96.7%
same,inhibiting effect on the adhesion of lymphocytes compared to rhamnose,"HSkMEC; 1.1 mM, non-activated HSkMEC",37.3%
same,"adhesion between lymphocytes and endothelial cells, Medium",HSkMEC,1.900
same,increase in adhesion of lymphocytes,HPLNEC.B3; 1.1 mM,37.9%
same,DPM/Ganglion,[4]; Concentration 1: 3%,1240.2 DPM/Ganglion
same,RATIO,[4]; Concentration 1: 3%,0.7
same,DPM/Ganglion,[4]; Concentration 2: 15%,1041.1 DPM/Ganglion
same,RATIO,[4]; Concentration 2: 15%,0.6
same,DPM/Ganglion,[4]; Concentration 3: 30%,797.3 DPM/Ganglion
same,RATIO,[4]; Concentration 3: 30%,0.5
same,effect on adhesion of lymphocytes,HAPEC; 1.1 mM,no effect or a very slight effect
same,concentrations at which cytotoxicity is exhibited,keratinocytes,greater than 2 mg/ml
same,% viability,keratinocytes; 0.1 mg/ml,94%
same,% viability,keratinocytes; 1 mg/ml,74%
same,% viability,keratinocytes; 2 mg/ml,53%
same,% viability,keratinocytes; 5 mg/ml,40%
same,Viability,[5]; all of the cells lines studied,greater than 85%
same,toxicity,[5]; endothelial cell lines,no toxicity
CCCCCCCCCCCCOC1O[C@@H](C)[C@H](O)[C@@H](O)[C@H]1O (stereo partly shown) [dodecyl-rhamnoside],effect on adhesion of lymphocytes,HBrMEC; 1.5 mM,no effect
same,inhibition of adhesion,"[2]; 1.5 μM, endothelial cells",63%
same,Control/TNF ratio,[2],0.59
same,"adhesion between lymphocytes and endothelial cells, TNF",[2],1.900
same,effect on adhesion of lymphocytes,HMLNEC; 1.5 mM,no effect
same,decrease of the adhesion of lymphocytes,"HSkMEC; 1.5 mM, non-activated HSkMEC",34.2%
same,"adhesion between lymphocytes and endothelial cells, Medium",HSkMEC,3.200
same,effect on adhesion of lymphocytes,HPLNEC.B3; 1.5 mM,no effect
same,increase in adhesion of lymphocytes,HAPEC; 1.5 mM,44.1%
octadecyl-rhamnose [Rh-C18],Percentage of inhibition of the release of PGE2,[1]; 0.02 mg/ml,2%
Triton [reference compound],IL1α ratio,reconstituted epidermis; 24 hours of application,36.0
same,IL8 ratio,reconstituted epidermis; 24 hours of application,3.7
same,LDH ratio,reconstituted epidermis; 24 hours of application,124.7
same,MTT % viability,reconstituted epidermis; 24 hours of application,3.0%
same,IL1α ratio,reconstituted epidermis; 72 hours of application,7.2
same,IL8 ratio,reconstituted epidermis; 72 hours of application,0.9
same,LDH ratio,reconstituted epidermis; 72 hours of application,77.3
same,MTT % viability,reconstituted epidermis; 72 hours of application,1.5%
same,Classification (cutaneous irritant potential),reconstituted epidermis,irritant
"C[C@H](O)[C@H](O)[C@@H](O)[C@@H](O)C=O [Rhamnose, rhamnose, reference compound]",Control/TNF ratio,[2],1.5
same,"adhesion between lymphocytes and endothelial cells, TNF",[2],2.450
same,"adhesion between lymphocytes and endothelial cells, Medium",HSkMEC,1.630
same,% viability,keratinocytes; 0.001 mg/ml,95%
same,% viability,keratinocytes; 0.01 mg/ml,100%
same,% viability,keratinocytes; 0.1 mg/ml,98%
same,% viability,keratinocytes; 1 mg/ml,104%
same,cytotoxicity,keratinocytes; even for the highest concentrations,does not exhibit cytotoxicity
